Assay results: paper PMC8667944 (Journal of Enzyme Inhibition and Medicinal Chemistry, 2021)
Read-outs that look alike come from different tables or passages of the source.

Biological target: T1, NgCA (Neisseria gonorrhoeae, UniProt Q50940)
T1 construct: gene cah; recombinant enzyme obtained in-house
T1 sequence (Q50940 27-252): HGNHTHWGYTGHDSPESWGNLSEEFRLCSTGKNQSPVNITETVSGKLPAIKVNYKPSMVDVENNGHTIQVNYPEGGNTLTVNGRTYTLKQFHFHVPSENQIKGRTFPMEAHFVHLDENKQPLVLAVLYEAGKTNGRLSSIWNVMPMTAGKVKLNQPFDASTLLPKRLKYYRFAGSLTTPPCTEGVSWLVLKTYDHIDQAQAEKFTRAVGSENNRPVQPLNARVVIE
Test: stopped-flow CO2 hydration assay
Assay type: biochemical

Row | Structure (SMILES) | Ki (read-out: Ki (nM)^a / NgCA) | Ki
1 | O=C(O)C1CCCN(C(=S)S)C1 (racemic) [compound 9, 9] | 297 nM | 
2 | S=C(S)NC1CN2CCC1CC2 (racemic) [compound 12, 12] | 482 nM | 
3 | NS(=O)(=O)c1ccc(CCNC(=S)S)cc1 [compound 1, 1] | 83.7 nM | 
4 | S=C(S)NCCc1ccccc1 [compound 2, 2] | 259 nM | 
5 | CN(C)CCNC(=S)S [compound 3, 3] | 568 nM | 
6 | OCCCCNC(=S)S [compound 4, 4] | 438 nM | 
7 | OCCCNC(=S)S [compound 5, 5] | 413 nM | 
8 | CC(C)(C)OC(=O)NC1CCCN(C(=S)S)C1 (stereo not drawn) [compound 6, 6] | 538 nM | 
9 | O=C(O)C1CCCCN1C(=S)S (stereo not drawn) [compound 7, 7] | 827 nM | 
10 | O=C(O)C1CCN(C(=S)S)CC1 [compound 8, 8] | 514 nM | 
11 | OC1CCCN(C(=S)S)C1 (stereo not drawn) [compound 10, 10] | 367 nM | 
12 | S=C(S)N[C@@H]1CN2CCC1CC2 [compound 11, 11] | 473 nM | 
13 | O=C(O)[C@@H]1CCCN(C(=S)S)C1 [compound 13, 13] | 242 nM | 
14 | O=C(O)[C@H]1CCCN(C(=S)S)C1 [compound 14, 14] | 335 nM | 
15 | CC(=O)NC1CCCN(C(=S)S)C1 (stereo not drawn) [compound 15, 15] | 451 nM | 
16 | S=C(S)N[C@H]1CN2CCC1CC2 [compound 16, 16] | 518 nM | 
17 | S=C(S)N1CCCCC1 [compound 17, 17] |  | 731 nM
18 | O=C(O)C1COCCN1C(=S)S (stereo not drawn) [compound 18, 18] | 672 nM | 
19 | CC1COCCN1C(=S)S (stereo not drawn) [compound 19, 19] | 723 nM | 
20 | O=C(CN1CCN(C(=S)S)CC1)NC1CCCCC1 [compound 20, 20] | 84.4 nM | 
21 | OCCCCCNC(=S)S [compound 21, 21] | 454 nM | 
22 | CC(C)CN(CC(C)C)C(=S)S [compound 22, 22] | 554 nM | 
23 | S=C(S)N1CCOCC1 [compound 23, 23] | 483 nM | 
24 | CN(Cc1ccccc1)C(=S)S [compound 24, 24] | 654 nM | 
25 | CCCCN(CCCC)C(=S)S [compound 25, 25] | 460 nM | 
26 | CCCN(CCC)C(=S)S [compound 26, 26] | 522 nM | 
27 | CCCCN(CC)C(=S)S [compound 27, 27] | 577 nM | 
28 | S=C(S)N1CCNCC1 [compound 28, 28] |  | 276 nM
29 | S=C(S)N1CCN(C(=S)S)CC1 [compound 29, 29] | 136 nM | 
30 | N#CC1(c2ccccc2)CCN(C(=S)S)CC1 [compound 30, 30] | 365 nM | 
